Test results reported in patent US7608411B2, “Prostaglandin receptor EP1” (Ono Pharmaceutical Co., Ltd., priority 2001, dated 2009).
Where a chain is given by its changes, count along the chain named.

Legend:
[1] = target: T1, human EP1 receptor described in Japanese Patent No. 3,090,472 (Homo sapiens, UniProt P34995, A71T/L230H); experiment: Measurement of intracellular Ca2+ concentration in cells expressing human EP1 receptor described in Japanese Patent No. 3,090,472; type: cell-based; settings: cells expressing human EP1 receptor of Japanese Patent No. 3,090,472 (reference); Fura2-AM fluorescence
T1 construct: expressed in transfected cells; host or cells: cells expressing the receptor of JP 3,090,472
T1 sequence (P34995 1-402 A71T/L230H): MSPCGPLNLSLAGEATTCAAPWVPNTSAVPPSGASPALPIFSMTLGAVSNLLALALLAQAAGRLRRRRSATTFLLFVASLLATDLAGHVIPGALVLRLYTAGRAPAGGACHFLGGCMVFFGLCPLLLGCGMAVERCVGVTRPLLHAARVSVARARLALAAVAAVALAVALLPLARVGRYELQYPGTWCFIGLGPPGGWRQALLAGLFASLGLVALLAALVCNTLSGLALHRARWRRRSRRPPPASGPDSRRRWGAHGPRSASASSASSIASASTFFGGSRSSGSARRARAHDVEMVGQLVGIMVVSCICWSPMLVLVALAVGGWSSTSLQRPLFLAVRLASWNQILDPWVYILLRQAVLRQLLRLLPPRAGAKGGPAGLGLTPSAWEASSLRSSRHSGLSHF
Experimental: (§1) The cells were cultured in 500 cm^2 treys to reach confluence, washed with PBS(−), and peeled off by pipeting with PBS(−) on ice. After centrifugation at 800 rpm for 3 minutes, the cell pellet was suspended in medium A (15 ml) and incubated at 37° C. for 50 minutes followed by at room temperature for 10 minutes. After re-centrifugation the pellet was suspended in medium B (1-2×10^6/ml) and used for experiments. In the case that cell suspension contains Fura2-AM (Dojin), the operations were shielded the light by aluminum foil. Stirring the cell suspensions (400 μl) at 600 rpm, the changes of intracellular Ca^2+ concentration were measured by monitoring the changes of fluorescence intensity at both 340 nm and 380 nm and the ratio thereof, using CAM-220 Spectrofluorometer (Nihon Bunko Kogyo).
(§2) Medium A: • α-MEM containing fura2-AM (5 μM)), indomethacin (10 μM), HEPES-NaOH (pH7.4, 10 mM) and 10% FCS,
(§3) Medium B: • α-MEM containing indomethacin (1 μM), HEPES-NaOH (pH7.4, 10 mM) and 0.1% BSA.
(§4) The changes in intracellular Ca^2+ concentration using the cells expressing human EP1 receptor of the present invention and the cells expressing human EP1 receptor described in Japanese Patent No. 3,090,472 were shown in FIG. 3. In FIG. 3, “reference” means the result obtained by using the cells expressing human EP1 receptor described in Japanese Patent No. 3,090,472.

[2] = target: T2, human EP1 receptor of the present invention (Homo sapiens, UniProt P34995); experiment: Measurement of intracellular Ca2+ concentration in cells expressing human EP1 receptor of the present invention; type: cell-based; settings: Fura2-AM fluorescence
T2 construct: The cDNA insert was cut off from pT7BluehEP1 by EcoR1 digestion, and inserted into EcoR1 site of expression vector pdKCR-dhfr; expressed in transfected cells; A1 used their membrane fraction, A3 used whole cells
T2 sequence (P34995 1-402): T1 sequence (P34995 1-402 A71T/L230H) with T71A, H230L
Experimental: as §1, §2, §3, §4

[3] = target: T1, human EP1 receptor described in Japanese Patent No. 3,090,472; experiment: Binding assay of [3H]-PGE2 with cells expressing human EP1 receptor described in Japanese Patent No. 3,090,472; settings: cells expressing human EP1 receptor of Japanese Patent No. 3,090,472 (reference)
Experimental: (§5) Reaction mixtures (200 μl) containing the membrane fraction, which was prepared by the above method and contains human EP1 receptor, and various concentrations of [3H]-PGE2 were incubated at room temperature for a certain time, separated by rapid filtration using Cell Harvester (Brandel). The membrane fraction was recovered on glass filter and washed several times with the buffer cooled on ice (1-2 ml/wash). Residual [3H]-PGE2 bound to the filter (total binding) was quantitated by liquid scintillation counter. Nonspecific binding was quantitated in a similar manner in the presence of 10 μM of PGE2. Specific binding was defined as the difference between total binding and nonspecific binding.
The specific binding thus obtained was analyzed by Scatchard plots, an equilibrium dissociation constant (Kd; nM) and a maximum number of specific binding sites (Bmax; fmol/mg protein) were determined. The result obtained using the cells expressing human EP1 of the present invention was shown in FIG. 1, and the result obtained using the cells expressing human EP1 described in Japanese Patent No. 3,090,472 in FIG. 2, respectively.

[4] = target: T2, human EP1 receptor of the present invention; experiment: Binding assay of [3H]-PGE2 with membrane fraction of CHO cells expressing human EP1 receptor of the present invention; settings: nonspecific binding with 10 μM PGE2
Experimental: 1) Gene Transfection into CHO Cells and Isolation of Clones Expressing Human EP1 Receptor
The cDNA insert was cut off from pT7BluehEP1 by EcoR1 digestion, and inserted into EcoR1 site of expression vector pdKCR-dhfr in the proper orientation. Approximately 25-50 ug of expression plasmid was digested completely with proper restriction enzymes (SalI, SacII etc.), purified by Phenol/CIAA extraction, CIAA extraction and ethanol precipitation, and dissolved in 50 μl of sterilized water. CHO-dhfr(−) cells used as host were suspended in 1.0-1.5×10^6 cells/0.8 ml of PBSuc buffer (sucrose 272 mM, K^+PO4^2− buffer (7 mM, pH7.4) and MgCl2 (1 mM)). […]
as §5, with “The membrane fraction was recovered on glass filter and washed several times with the buffer cooled on ice (1-2 ml/wash).” left out, “Specific binding was defined as the difference between total binding and nonspecific binding.” left out
The specific binding thus obtained was analyzed by Scatchard plots, an equilibrium dissociation constant (Kd; nM) and a maximum number of specific binding sites (Bmax; fmol/mg protein) were determined. […]

Row | SMILES | PGE2 dependent elevation of intracellular Ca2+ concentration [1] | PGE2 dependent elevation of intracellular Ca2+ concentration [2] | specific binding of [3H]-PGE2 to the receptor [3] | specific binding of [3H]-PGE2 to the receptor [4]
1 | CCCCC[C@H](O)/C=C/[C@H]1[C@H](O)CC(=O)[C@@H]1C/C=C\CCCC(=O)O [PGE2, prostaglandin E2] | not detected at all | detected | – | –
2 | CCCCC[C@H](O)/C=C/[C@H]1[C@H](O)CC(=O)[C@@H]1C/C=C\CCCC(=O)O [[^3H]-PGE2] | – | – | detected | extremely high specific binding
